Read-outs that look alike come from different tables or passages of the source.
Columns and labels:
[1] = In vitro dissociation in blood plasma of rat; format: in vitro ADME, SD rats; conditions: fresh SD rat plasma, 37° C.; for Sampling time/Dissociation percent (%) 2 min: 2 min incubation; for Sampling time/Dissociation percent (%) 5 min: 5 min incubation; for Sampling time/Dissociation percent (%) 10 min: 10 min incubation
Experimental: The obtained water soluble taxane derivatives of the following formulae were formulated as 0.2 mg/ml aqueous solutions. […] After 2 min, 5 min and 10 min of incubation, 0.2 ml of solutions were respectively taken from each of the samples, and added to acetonitrile (0.4 ml) cooled to −20° C. for precipitation of protein.

[2] = In vitro dissociation in blood plasma of rabbit; format: in vitro ADME, New Zealand white rabbits; conditions: fresh New Zealand white rabbit plasma, 37° C.
Experimental: The obtained water soluble taxane derivatives of the following formulae were formulated as 0.2 mg/ml aqueous solutions. […]

[3] = SD rats, 5 mg/kg intravenous, 5 min after administration, LC-MS
Experimental: After 5 min of administration, 0.3 ml of venous blood was taken from the retrobulbar venous plexus of the rats, placed in heparinized tubes, and centrifuged at 11,000 rpm for 5 min. Plasma was separated, and the concentrations of the compounds in the plasma were determined by liquid chromatography □-mass spectrometry.

[4] = physiological saline
[5] = In vivo metabolic test of the water soluble paclitaxel derivatives in rats; conditions: SD rats, 5 mg/kg intravenous, 5 min after administration, LC-MS
Experimental: After 5 min of administration, 0.3 ml of venous blood was taken from the retrobulbar venous plexus of the rats, placed in heparinized tubes, and centrifuged at 11.000 rpm for 5 min. Blood plasma was separated, and the concentrations of the compounds in the blood plasma were determined by liquid chromatography-mass spectrometry.

[6] = test system: human ovarian cancer SK-OV-3; conditions: 16 mg/kg, D0-4 IV
Description: Purpose: to evaluate and compare the inhibitory activity of the water soluble paclitaxel derivatives, paclitaxel and Abraxane® on subcutaneously xenografted tumor of human ovarian cancer SK-OV-3 in nude mice.
Human ovarian cancer SK-OV-3 cells were subcutaneously inoculated to nude mice. After the tumor volume reached 100-150 mm^3, the animals were randomly divided into groups (D0), and administered with the water soluble paclitaxel derivatives of the following formula, paclitaxel, and Abraxane®, respectively once per day for 5 days. The tumor volume was measured 2-3 times per week, the animals were weighed and the data were recorded until day 22 (D22) after grouping.
(§1) The tumor volume (V) was calculated according to the equation: V=½×a×b^2, wherein a and b represent the length and the width, respectively.
T/C (%)=(T−T0)/(C−C0)×100, wherein T and C represent the tumor volume at the end of the experiment, and T0 and C0 represent the tumor volume at the beginning of the experiment.

[7] = test system: human prostate cancer PC-3; experiment: Inhibitory activity of docetaxel derivatives on subcutaneously xenografted tumor PC-3 in nude mice; format: in vivo; conditions: 14 mg/kg, D0 IV
Description: Purpose: to evaluate and compare the inhibitory activity of the water soluble docetaxel derivatives and docetaxel on subcutaneously xenografted tumor of human prostate cancer PC-3 in nude mice
Human prostate cancer PC-3 cells were subcutaneously inoculated into nude mice. After the tumor volume reached 100-150 mm^3, the animals were randomly divided into several groups, and administered with the water soluble docetaxel derivatives of the following formula and docetaxel, respectively once on the same day (D0). The tumor volume was measured 2-3 times per week, the animals were weighed and the data were recorded until day 20 (D20) after grouping.
as §1
T/C (%)=(T−T0)/(C−C0)×100, wherein T and C represent the tumor volume at the end of the experiment; and T0 and C0 represent the tumor volume at the beginning of the experiment.

[8] = D22, SK-OV-3 xenograft in nude mice
[9] = D20, PC-3 xenograft in nude mice

Row | SMILES | Sampling time/Dissociation percent (%) 2 min [1] [%] | Sampling time/Dissociation percent (%) 5 min [1] [%] | Sampling time/Dissociation percent (%) 10 min [1] [%] | Sampling time/Dissociation percent (%) 2 min [2] [%] | Sampling time/Dissociation percent (%) 5 min [2] [%] | Sampling time/Dissociation percent (%) 10 min [2] [%] | detection of the administered compound in the blood plasma [3] | mean concentration of docetaxel in the blood plasma [3] [ng/mL] | detection of the administered compound in the blood plasma [5] | mean concentration of paclitaxel in the blood plasma [5] [ng/mL] | also measured
1 | CC(=O)O[C@@]12CO[C@@H]1C[C@H](O)[C@@]1(C)C(=O)[C@H](O)C3=C(C)[C@@H](OC(=O)[C@H](OC(=O)C(F)CCN(C)C)[C@@H](NC(=O)OC(C)(C)C)c4ccccc4)C[C@@](O)([C@@H](OC(=O)c4ccccc4)[C@H]21)C3(C)C.Cl (stereo partly drawn) [Compound 06, 2′-O-[4-N,N-dimethylamino-2(R,S)-fluorobutyryl]docetaxel hydrochloride] | 56.4 | 91.1 | 100 | 75.6 | 98.6 | 100 | cannot be detected | 1621 | – | – | –
2 | CC(=O)OC1C(=O)C23CC2CC2OCC2(OC(C)=O)C3C(OC(=O)c2ccccc2)C2(O)CC(OC(=O)C(OC(=O)C(F)CC(C)N(C)C)C(NC(=O)OC(C)(C)C)c3ccccc3)C(C)=C1C2(C)C.CS(=O)(=O)O [Compound 16, 2′-O-[4-N,N-dimethylamino-2(R)-fluorovaleryl]larotaxel methanesulfonate] | 60.2 | 92.1 | 100 | 63.2 | 94.1 | 100 | – | – | – | – | Solubility [4]: 11100 µg/mL
3 | CC(=O)OC12COC1CC(O)C1(C)C(=O)C(O)C3=C(C)C(OC(=O)C(OC(=O)C(F)CCN(C)C)C(NC(=O)OC(C)(C)C)c4ccccc4)CC(O)(C(OC(=O)c4ccccc4)C21)C3(C)C.Cl [Compound 04, 2′-O-[4-N,N-dimethylamino-2(R)-fluorobutyryl]docetaxel hydrochloride] | 58.6 | 92.6 | 100 | 80.2 | 93.5 | 100 | cannot be detected | 1506 | – | – | –
4 | CC(=O)O[C@H]1C(=O)[C@]23C[C@H]2C[C@H]2OC[C@@]2(OC(C)=O)[C@H]3[C@H](OC(=O)c2ccccc2)[C@]2(O)C[C@H](OC(=O)[C@H](OC(=O)[C@H](F)CC(C)N(C)C)[C@@H](NC(=O)OC(C)(C)C)c3ccccc3)C(C)=C1C2(C)C.Cl (stereo partly drawn) [Compound C16, 2′-O-[4-N,N-dimethylamino-2(R)-fluorovaleryl]larotaxel hydrochloride] | 61.1 | 93.8 | 100 | 68.2 | 94.4 | 100 | – | – | – | – | Solubility [4]: 800 µg/mL
5 | CC(=O)O[C@H]1C(=O)[C@@]2(C)[C@H]([C@H](OC(=O)c3ccccc3)[C@]3(O)C[C@H](OC(=O)[C@H](OC(=O)[C@H](F)CCN(C)C)[C@@H](NC(=O)c4ccccc4)c4ccccc4)C(C)=C1C3(C)C)[C@]1(OC(C)=O)CO[C@@H]1C[C@@H]2O.Cl [Compound 01, 2′-O-[4-N,N-dimethylamino-2(R)-fluorobutyryl]paclitaxel hydrochloride] | 63.5 | 96.8 | 100 | 76.5 | 98.3 | 100 | – | – | cannot be detected | – | –
6 | CC(=O)O[C@H]1C(=O)[C@@]2(C)[C@H]([C@H](OC(=O)c3ccccc3)[C@]3(O)C[C@H](OC(=O)[C@H](OC(=O)C(F)CCN(C)C)[C@@H](NC(=O)c4ccccc4)c4ccccc4)C(C)=C1C3(C)C)[C@]1(OC(C)=O)CO[C@@H]1C[C@@H]2O.Cl (stereo partly drawn) [Compound 03, 2′-O-[4-N,N-dimethylamino-2(R,S)-fluorobutyryl]paclitaxel hydrochloride] | 61.8 | 93.1 | 100 | 75.7 | 93.5 | 100 | – | – | cannot be detected | 1825 | –
7 | CC(=O)O[C@H]1C(=O)[C@@]2(C)[C@H]([C@H](OC(=O)c3ccccc3)[C@]3(O)C[C@H](OC(=O)[C@H](OC(=O)[C@@H](F)CCN(C)C)[C@@H](NC(=O)c4ccccc4)c4ccccc4)C(C)=C1C3(C)C)[C@]1(OC(C)=O)CO[C@@H]1C[C@@H]2O.Cl [Compound 02, 2′-O-[4-N,N-dimethylamino-2(S)-fluorobutyryl]paclitaxel hydrochloride] | 59.8 | 95.6 | 100 | 68.2 | 97.5 | 100 | – | – | cannot be detected | 1637 | –
8 | CC(=O)O[C@@]12CO[C@@H]1C[C@H](O)[C@@]1(C)C(=O)[C@H](O)C3=C(C)[C@@H](OC(=O)[C@H](OC(=O)[C@@H](F)CCN(C)C)[C@@H](NC(=O)OC(C)(C)C)c4ccccc4)C[C@@](O)([C@@H](OC(=O)c4ccccc4)[C@H]21)C3(C)C.Cl [Compound 05, 2′-O-[4-N,N-dimethylamino-2(S)-fluorobutyryl]docetaxel hydrochloride] | 56.4 | 91.1 | 100 | 79.3 | 91.8 | 100 | cannot be detected | 1387 | – | – | –
9 | CC(=O)O[C@H]1C(=O)[C@@]2(C)[C@H]([C@H](OC(=O)c3ccccc3)[C@]3(O)C[C@H](OC(=O)[C@H](O)[C@@H](NC(=O)c4ccccc4)c4ccccc4)C(C)=C1C3(C)C)[C@]1(OC(C)=O)CO[C@@H]1C[C@@H]2O [paclitaxel, reference compound] | – | – | – | – | – | – | – | – | – | 1793 | Body weight change (%) D4 ([6]; D4, nude mice): −4.8%; T/C (%) D22 [6, 8]: −60%; Tumor volume (mm^3) (D22) [6, 8]: 53.7 ± 11.2 mm^3; Tumor inhibitory percent (%) D22 ([6]; D22, SK-OV-3 xenograft in nude mice, P = 0.000 vs control): 160%; Tumor volume (mm^3) (D0) ([6]; baseline at grouping (D0), SK-OV-3 xenograft in nude mice): 134.6 ± 19.7 mm^3
10 | CC(=O)O[C@@]12CO[C@@H]1C[C@H](O)[C@@]1(C)C(=O)[C@H](O)C3=C(C)[C@@H](OC(=O)[C@H](O)[C@@H](NC(=O)OC(C)(C)C)c4ccccc4)C[C@@](O)([C@@H](OC(=O)c4ccccc4)[C@H]21)C3(C)C [docetaxel, reference compound] | – | – | – | – | – | – | – | 769 | – | – | Weight change (%) D6 ([7]; D6, nude mice): −12.3%; T/C (%) D20 [7, 9]: −27%; Tumor volume (mm^3) (D20) [7, 9]: 81.4 ± 25.1 mm^3; Tumor inhibitory percent (%) D20 ([7]; D20, PC-3 xenograft in nude mice, P = 0.000 vs control): 127%; Tumor volume (mm^3) (D0) ([7]; baseline at grouping (D0), PC-3 xenograft in nude mice): 111.5 ± 1.3 mm^3
